From patent US20210253575A1, “PYRROLIDINE AMINE COMPOUNDS FOR THE TREATMENT OF AUTOIMMUNE DISEASE” (Hoffmann-La Roche Inc., priority 2018, published 2021)

biological target: T1, human TLR7 (Homo sapiens, UniProt Q9NYK1); assay: HEK293-Blue-hTLR-7 cells assay (SEAP reporter, R848 stimulation); assay type: cell-based; conditions: HEK293-Blue-hTLR7 cells, R848 ligand, 20 hrs incubation
T1 sequence (Q9NYK1 27-1049): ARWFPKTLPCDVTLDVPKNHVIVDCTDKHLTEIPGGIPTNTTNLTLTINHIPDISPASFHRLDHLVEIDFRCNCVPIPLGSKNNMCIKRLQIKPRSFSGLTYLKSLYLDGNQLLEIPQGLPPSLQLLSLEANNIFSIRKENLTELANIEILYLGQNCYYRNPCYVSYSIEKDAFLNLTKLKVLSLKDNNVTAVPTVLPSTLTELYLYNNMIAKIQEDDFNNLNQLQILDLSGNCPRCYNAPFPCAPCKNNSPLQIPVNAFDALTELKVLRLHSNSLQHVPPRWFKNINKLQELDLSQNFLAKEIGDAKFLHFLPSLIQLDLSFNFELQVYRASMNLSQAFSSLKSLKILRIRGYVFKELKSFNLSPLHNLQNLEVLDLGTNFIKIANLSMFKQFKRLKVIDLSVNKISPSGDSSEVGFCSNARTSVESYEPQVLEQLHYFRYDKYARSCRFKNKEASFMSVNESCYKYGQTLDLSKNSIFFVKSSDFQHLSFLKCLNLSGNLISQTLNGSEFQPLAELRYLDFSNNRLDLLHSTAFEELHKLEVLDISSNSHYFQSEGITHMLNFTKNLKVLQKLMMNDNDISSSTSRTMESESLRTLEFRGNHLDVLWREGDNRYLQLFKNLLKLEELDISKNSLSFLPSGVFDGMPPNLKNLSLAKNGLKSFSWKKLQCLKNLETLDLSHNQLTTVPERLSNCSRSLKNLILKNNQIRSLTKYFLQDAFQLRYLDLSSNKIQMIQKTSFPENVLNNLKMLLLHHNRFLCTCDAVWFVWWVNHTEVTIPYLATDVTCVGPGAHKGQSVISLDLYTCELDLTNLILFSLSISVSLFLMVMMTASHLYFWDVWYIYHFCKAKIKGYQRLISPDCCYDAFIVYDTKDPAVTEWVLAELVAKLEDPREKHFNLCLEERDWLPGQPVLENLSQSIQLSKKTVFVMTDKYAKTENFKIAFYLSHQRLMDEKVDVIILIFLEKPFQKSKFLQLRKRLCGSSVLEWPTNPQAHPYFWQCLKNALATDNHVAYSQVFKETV
Procedure, shortened: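 Antagonism measured in stable HEK293-Blue-hTLR7 cells carrying an NF-κB/AP-1-driven SEAP reporter, stimulated with R848 (10 µL of 20 µM stock) with serially diluted compound, 1% DMSO, 20 h at 37 °C. Supernatant SEAP read with QUANTI-Blue after 2 h at 37 °C, absorbance 620–655 nm.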

Question: How did the IC50 turn out when `CC1(CN)CCN(C[C@H]2CN(c3ccc(C#N)c4nccnc34)C[C@@H]2C(F)(F)F)C1` (stereo partly drawn) [Example 85, 8-[(3S,4R)-3-[[3-(aminomethyl)-3-methyl-pyrrolidin-1-yl]methyl]-4-(trifluoromethyl)pyrrolidin-1-yl]quinoxaline-5-carbonitrile] was run?
Answer: Its IC50 is 83 nM.

Question: How did the IC50 turn out when `N#Cc1ccc(N2CC(CN3CCNCC3)C3(CC3)C2)c2nccnc12` (centres unmarked) [Example 3, 8-[7-(piperazin-1-ylmethyl)-5-azaspiro[2.4]heptan-5-yl]quinoxaline-5-carbonitrile] was run?
Answer: The IC50 was 27 nM.

Question: How did the IC50 turn out when `CN(C)[C@@H]1CCN(C[C@H]2CN(c3ccc(C#N)c4nccnc34)C[C@@H]2C(F)(F)F)C1` [Example 83, 8-[(3S,4R)-3-[[(3R)-3-(dimethylamino)pyrrolidin-1-yl]methyl]-4-(trifluoromethyl)pyrrolidin-1-yl]quinoxaline-5-carbonitrile] was run?
Answer: Its IC50 is 25 nM.

Question: `CN1CCC2(CCN(C[C@H]3CN(c4ccc(C#N)c5nccnc45)C[C@@H]3C(F)(F)F)C2)C1` (stereo partly drawn) [Example 84, 8-[(3S,4R)-3-[(7-methyl-2,7-diazaspiro[4.4]nonan-2-yl)methyl]-4-(trifluoromethyl)pyrrolidin-1-yl]quinoxaline-5-carbonitrile] was tested. Which IC50 did it give?
Answer: Its IC50 is 48 nM.

Question: `N#Cc1ccc(N2CC(CN3CC4CCC(C3)C4N)C3(CC3)C2)c2nccnc12` (centres unmarked) [Example 4, 8-[7-[(8-Amino-3-azabicyclo[3.2.1]octan-3-yl)methyl]-5-azaspiro[2.4]heptan-5-yl]quinoxaline-5-carbonitrile] was tested. Which IC50 did it give?
Answer: Its IC50 is 28 nM.
